# Experiments:
# Assay type in all cases: cell-based
# [1] = test system: BT-20 and MDA-MB468 cells; test: Mitochondrial membrane potential assay (MitoTracker Red / Alexa Fluor 488 annexin V); details: 0.5, 1, and 2 μM
# Description: This assay is a direct measure of the structural integrity of mitochondria. Cells were seeded as indicated in the cell cycle assay and incubated for 24 h at 37° C. The next day, TPH104 (0.5, 1, 2 μM) or vehicle and incubated with the cells for 12 h. The cells were harvested, washed 2× with PBS, counted, and their concentrations were adjusted to 5×10^6 cells/well in the culture medium. Subsequently, 4 μl of the 10 μM solution of mitotracker red was added to each 1 ml aliquot of cells and incubated with the cells for 30 minutes at 37° C. The cells were washed 2× with PBS and re-suspended in the 100 μl of 1× annexin-binding buffer. The cells were stained with Alexa Fluor for 15 minutes and analyzed using flow cytometry as described in the manufacturer protocol (Thermofisher, USA).
# TNBC cell lines = test: Cytotoxicity screening (MTT), TNBC cell lines overall; details: TNBC cell lines overall
# Text: To this end, several commercial databases were searched, and 17 similar molecules from the VitasM database were retrieved with considerable structural diversity in terms of the substitution on the aryl ring A attached to the thienopyrimidine scaffold and aryl ring B attached to hydrazino moiety. Further, the biological evaluation of the 17 molecules sheds light on the structural features deemed important for the selective cytotoxicity shown by this class of molecules. With this understanding, the 17 molecules were subjected to a screening protocol comprising of two TNBC, two non-TNBC, and one normal cell lines.
# The following cancer and non-cancer cell lines were used in the initial cytotoxicity screening of the TPH104 compounds: triple negative breast cancer (TNBC): MDA-MB468, MDA-MB 231, and BT-20; non-TNBC: MCF-7 and ZR-75-1; ovarian: Ov2008; prostate: DU145; colon: HCT-116, S1, and LOVO; lung: H460; normal kidney: HEK-293; normal breast: HMEC; and normal colon: CRL-1459. All cells were cultured in Dulbecco's modified Eagle medium (DMEM), supplemented with 10% fetal bovine serum (FBS), and 1% penicillin/streptomycin (P/S). Cells were allowed to grow as adherent monolayers in T25 flasks in a humidified incubator with 5% CO2 at 37° C. for a period of 24 h, unless otherwise specified for certain experiments.
# The MTT assay was used to determine the cytotoxicity of all of the compounds. Briefly, in a 96-well flat-bottom cell culture plate, the cells were seeded at a density between 3-5×10^3 cells/well (180 μl in each well) and incubated for 24 h (a hemocytometer was used for cell counting). The next day, the cells were incubated with different concentrations of the nine compounds (0, 0.1, 0.3, 1, 3, 10, 30, and 100 μM) for 72 h. After 72 h, 20 μl of 5 mg/ml of 3-(4,5-dimethylthiazol-2-yl)-2,5-diphenyltetrazolium bromide (MTT) was added to the plate and incubated with the cells for 3 h at 37° C. In this experiment, the living cells will reduce the soluble MTT dye to non-soluble purple formazan crystals. Following incubation, the media containing MTT removed via suction and 100 μL of 100% dimethyl sulfoxide (DMSO) was added to dissolve the formazan crystals. Subsequently, the plate was shaken for 2 minutes and the absorbance was measured at a wavelength of 570 nm using a SpectraMax iD3 Multi-Mode Microplate Reader (Molecular Devices, Sunnyvale, CA). The IC50 values of each compound were calculated and used to determine the selectivity ratio (IC50 in normal cells/IC50 in cancer cells) of each compound as previously described. Based on the results obtained from these experiments, the compound TPH104, which had the lowest IC50 value, was selected for further experiments.
# [2] = test system: RAW264.7 macrophage cells; test: Optically activated migration of RAW264.7 cells; details: 10 μM
# Description: FIGS. 13A-13B: The in vitro effect of TPH104 on the migratory and invasive properties of MDA-MB231 TNBC cells using the wound healing assay. […] Control cells were incubated with 11-cis retinal (50 μM) for 5 minutes in the dark. A confined optical input of 445 nm was placed in-front of cells using a user-defined region of interest (ROI) and optically activated (OA) continuously in the direction of cell migration pathway for 20 minutes (OA=blue box). Cells were incubated with 10 μM of TPH104 for 30 minutes, followed by incubation with 11-cis retinal (50 μM) for 5 minutes in the dark. Scale=5 μm.
# To further confirm the anti-migratory effect of TPH104, RAW264.7 macrophage cells were incubated with 10 μM TPH104 and its effect on Gai-coupled-GPCR activation was determined.
# [3] = test system: Bak, Bax, Bcl-2, caspases, PARP, cytochrome c in BT-20 cells; test: Western blot, apoptotic proteins
# Description: The TNBC cells were seeded in a culture flask and incubated for 24 h. The cells were then incubated with different concentrations of the lead compounds and re-incubated for an additional 12 or 24 h. […] The bicinchoninic acid (BCA) was used to determine protein concentration in the cell extracts (G-BIOSCIENCES, St. Louis, MO, USA). […] The membrane was blocked using 5% milk in Tris-buffered Tween 20 saline for 30 minutes. The membrane was then incubated overnight with primary antibodies against Bak, Bax, Bcl-2, caspase9, caspase 3, caspase 7, PARP, cytochrome c, N-cadherin, E-cadherin, c-Myc, dishevelled segment polarity protein 3 (DVL3), dishevelled segment polarity protein 2 (DVL2), Vimentin, mitogen-activated protein kinase kinase (MAPKK also known as MEK1/2), β-catenin, low-density lipoprotein receptor-related protein 6 (LRP6), receptor-interacting protein kinase (RIP), phosphorylated RIP (p-RIP), mixed lineage kinase domain like pseudokinase(MLKL), Caspase 8, light chain 3 (LC3), lysosomal-associated membrane protein 1 (LAMP1), unc-51 like autophagy activating kinase 1 (ULK1), ras associated protein 7 (Rab7), ras associated protein 5 (Rab5), Beclin 1, mechanistic target of rapamycin (mTOR), tumor necrosis factor alpha (TNF-α), tumor necrosis factor receptor 1 (TNFR1), tumor necrosis factor receptor 2 (TNFR2), Fas-associated protein with death domain (FADD), Fas ligand (Fas), TNF-related apoptosis-inducing ligand (TRAIL), death receptor 5 (DR5), Tumor necrosis factor receptor type 1-associated DEATH domain (TRADD), receptor-interacting protein kinase 3 (RIP3), β-actin or GAPDH in 1:1000 dilution in 5% milk or 5% BSA at 4° C. Horseradish peroxidase-labeled (HRP) anti-rabbit or anti-mouse secondary antibodies (1:5,000 dilution) were added and incubated the next day for an additional 1 h. A ChemiDoc™ MP System imaging system from Bio-Rad (Hercules, CA, USA) was used for blots reading. Blots were used to obtain the protein bands, followed by quantification of the bands using image J software (NIH, Bethesda, MD, USA). All of the data were expressed as the ratio of β-actin or GAPDH.
smiles,measurement,setting,value
COc1ccc(O)c(/C=N/Nc2ncnc3scc(-c4ccc(C)cc4)c23)c1 [TPH104],mitochondrial membrane potential,[1],did not significantly alter
same,"number of cells in the second quadrant (Q2), apoptotic cells",[1]; flow cytometry,did not significantly alter
same,IC50,TNBC cell lines,< 1 µM
same,migration of RAW264.7 cells,[2],significantly decreased
same,expression levels of caspase 3 and cleaved caspase 3,[3]; 2 μM or 5 μM,significantly decreased
same,expression levels of caspase 7 and caspase 9,"[3]; 0.5, 1, 2, and 5 μM",did not significantly alter
same,expression of Bcl2,"[3]; 0.5, 1, 2, and 5 μM",increased
same,expression of Bak,"[3]; 0.5, 1, 2, and 5 μM, BT-20 and MDA-MB468",not significantly altered
same,PARP cleavage,"[3]; 1, 2, and 5 μM",significantly cleaved
same,expression of cytochrome c,"[3]; 1, 2, and 5 μM",significantly decreased
same,expression of Bax,"[3]; 1, 2, and 5 μM, BT-20 and MDA-MB468",significantly decreased
